Results from patent publication US20230127202A1, “LONG-TERM PROBIOTIC BACTERIAL STORAGE AT AMBIENT TEMPERATURE” (CORNELL UNIVERSITY, priority 2021, published 2023).

Tested on: LGG isolates
Assay: Antimicrobial susceptibility (MIC) test, Sensititre COMPGP1F gram-positive panel, CLSI interpretation
Format: cell-based, Lactobacillus rhamnosus GG
Conditions: all LGG isolates after heat treatment and storage
Experimental: Antimicrobial susceptibility or minimum inhibitory concentration (MIC) test was performed using the Sensititre® system COMPGP1F gram-positive systemic panel. The test used the Clinical and Laboratory Standards Institute (CLSI) guidelines for interpretation of MIC values. All of the isolates were examined for susceptibility to 23 antimicrobial agents included in the gram-positive panel of the National Antimicrobial Resistance Monitoring System (NARMS), including amikacin, ampicillin, augmentin, cefazolin, cefovecin, cefpodoxime, cephalothin, chloramphenicol, clindamycin, doxycycline, enrofloxacin, erythromycin, gentamicin, imipenem, marbofloxacin, minocycline, nitrofurantoin, oxacillin + 2% NaCl, penicillin, pradofloxacin, rifampin, tetracycline, trim/sulfa.

Row | Compound | antimicrobial sensitivity of the isolates (CLSI interpretation of MIC)
1 | CC1(C)S[C@@H]2[C@H](NC(=O)[C@H](N)c3ccccc3)C(=O)N2[C@H]1C(=O)O [ampicillin] | intermediate sensitivity
2 | Cc1nnc(SCC2=C(C(=O)O)N3C(=O)[C@@H](NC(=O)Cn4cnnn4)[C@H]3SC2)s1 [cefazolin] | resistance
3 | CC[C@H]1OC(=O)[C@H](C)[C@@H](O[C@H]2C[C@@](C)(OC)[C@@H](O)[C@H](C)O2)[C@H](C)[C@@H](O[C@@H]2O[C@H](C)C[C@H](N(C)C)[C@H]2O)[C@](C)(O)C[C@@H](C)C(=O)[C@H](C)[C@@H](O)[C@]1(C)O [erythromycin] | susceptible
4 | augmentin | susceptible
5 | oxacillin [oxacillin + 2% NaCl] | susceptible
6 | penicillin | resistance

Tested on: Lactobacillus rhamnosus GG (LGG, ATCC 53103)
Assay: Bacterial survivability test (colony count) of LGG stored in food-grade oils at room temperature
Format: physicochemical
Conditions: under all conditions
Experimental: PBS at pH 7.4 was used as a control for each temperature. Each individual vial containing 20 mL of oil was heated to reach the desired temperature and the temperature equilibrated for 15-20 minutes. To each heated vial, 0.05 g of LGG powder was added. For prebiotic treatment, 0.05 g of inulin were added before the addition of LGG. The vial containing the oil-bacteria mixture was held at temperature for 1 minute with gentle stirring. Finally, the vial was taken out of the oil bath and cooled to room temperature over a range of 25 to 45 minutes depending on the heating treatments. As control samples, the LGG powder was added to each type of oil and PBS (pH 7.4) with the samples not heated. FIG. 1A illustrates the experimental set up for the heat treatment.
To prevent bacterial growth during storage of probiotics in aqueous solutions, oil was used as a barrier to water penetration and thus serves to preserve and prevent spoilage of the probiotic products. Before the storage of bacteria in oil, the LGG concentration in each type of oil was quantified and recorded as the initial concentration. […] The control medium was 20 mL of PBS at pH 7.4. For the control sample, 0.05 g of the bacteria were added to PBS and, after mixing, cultured on MRS agar plates. […] The survivability of the bacteria was assessed at specific time points over a year using the colony count technique. […]

Row | Compound | effect on survival rates of the bacteria
7 | inulin | reduced the survival rates
